Measurements as given in patent publication US4689326A, “Process for controlling hyperlipidemia” (Research Corporation, priority 1985, dated 1987).

Columns and labels:
Acetyl CoA Carboxylase = test: In vivo enzyme activity, liver of treated mice: acetyl CoA carboxylase; design: species or system CF1 male mice; details: 16 days, ± SD
Procedure: (§1) In vitro enzymatic studies were undertaken using 10% homogenates of CF1 male mouse liver with […] of compound 3,4,5,6-dibenzohomopiperidine. In addition, in vivo enzymatic studies were performed, again using 10% liver homogenates (prepared in 0.25 M sucrose plus 0.001 M (ethylenedinitrilo)-tetraacetic acid, ph 7.25 from CF1 male mice obtained after administering 3,4,5,6-dibenzohomopiperidine for 16 days at a concentration ranging from 10 to 60 mg/kg/day, intraperitoneally.
(§2) The following enzyme activities were determined by following standard literature procedures: acetyl coenzyme synthetase; adenosine triphosphate dependent citrate lyase; mitochondrial citrate exchange; cholesterol/7 hydroxylase; 3-hydroxy-3-methyl-glutaryl coenzyme A reductase; acetyl coenzyme A carboxylase activity; fatty acid synthetase activity; sn-glycerol-3-phosphate acyl transferase activity; phosphatidate phosphohydrolase activity; cholesterol acyl transferase; and heparin activated hepatic lypoprotein lipase. Protein was determined for all enzyme assays by the Lowry et al. technique (J. Biol. Chem, 193, 265 (1951)).

[1] = biological target: T1, Hepatic Lipoprotein Lipase (Mus musculus, UniProt P27656); test: In vitro enzyme activity, liver homogenate: hepatic lipoprotein lipase; assay type: biochemical, CF1 male mouse; details: ± SD, N = 6, read-out: Percent Control, in vitro enzyme activity
T1 construct: 10% homogenates of CF1 male mouse liver; from tissue; host or cells: CF1 male mouse liver, 10% homogenate
T1 sequence (P27656 22-510): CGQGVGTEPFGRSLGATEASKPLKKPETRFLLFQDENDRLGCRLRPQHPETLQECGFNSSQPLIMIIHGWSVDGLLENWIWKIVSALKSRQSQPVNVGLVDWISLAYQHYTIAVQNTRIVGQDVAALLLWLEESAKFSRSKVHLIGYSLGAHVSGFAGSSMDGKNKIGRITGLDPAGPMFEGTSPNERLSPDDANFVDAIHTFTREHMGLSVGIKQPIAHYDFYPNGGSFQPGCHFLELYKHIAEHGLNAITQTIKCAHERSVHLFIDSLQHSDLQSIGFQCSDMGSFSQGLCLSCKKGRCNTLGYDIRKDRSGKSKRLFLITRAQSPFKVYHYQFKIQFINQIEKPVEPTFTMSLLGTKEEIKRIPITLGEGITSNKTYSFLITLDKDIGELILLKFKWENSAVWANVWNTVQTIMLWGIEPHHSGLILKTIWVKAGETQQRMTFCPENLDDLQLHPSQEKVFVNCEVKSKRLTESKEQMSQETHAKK
Procedure: as §1, §2

Acetyl CoA Synthetase = biological target: T2, Acetyl CoA Synthetase (Mus musculus, UniProt Q9QXG4); test: In vitro enzyme activity, liver homogenate: acetyl CoA synthetase; assay type: biochemical, CF1 male mouse; details: ± SD, N = 6, read-out: Percent Control, in vitro enzyme activity
T2 construct: 10% homogenates of CF1 male mouse liver; from tissue; host or cells: CF1 male mouse liver, 10% homogenate
T2 sequence (Q9QXG4 whole entry): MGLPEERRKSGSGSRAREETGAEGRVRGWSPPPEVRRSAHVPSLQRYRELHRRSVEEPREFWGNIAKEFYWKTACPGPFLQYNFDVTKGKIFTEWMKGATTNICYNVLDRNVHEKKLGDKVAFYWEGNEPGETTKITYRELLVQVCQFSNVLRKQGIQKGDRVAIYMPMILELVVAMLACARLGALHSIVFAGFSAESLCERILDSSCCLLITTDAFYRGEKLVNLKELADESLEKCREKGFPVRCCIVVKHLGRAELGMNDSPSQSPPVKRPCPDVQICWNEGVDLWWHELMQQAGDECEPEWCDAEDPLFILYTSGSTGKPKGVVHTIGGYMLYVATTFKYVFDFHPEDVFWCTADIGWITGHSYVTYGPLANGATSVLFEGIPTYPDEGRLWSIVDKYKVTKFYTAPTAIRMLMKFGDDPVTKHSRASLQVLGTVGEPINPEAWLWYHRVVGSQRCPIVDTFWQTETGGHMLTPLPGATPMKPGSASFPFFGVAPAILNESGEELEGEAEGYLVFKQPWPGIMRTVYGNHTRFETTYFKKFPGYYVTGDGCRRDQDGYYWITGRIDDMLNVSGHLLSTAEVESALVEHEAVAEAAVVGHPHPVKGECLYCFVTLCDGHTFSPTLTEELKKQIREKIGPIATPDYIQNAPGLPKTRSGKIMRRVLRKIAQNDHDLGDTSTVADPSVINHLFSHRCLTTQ
Procedure: as §1, §2

serum triglycerides = test: Testing of Normal Rats: serum triglycerides, Example 8; assay type: in vivo, Sprague Dawley male rats; details: oral 20 mg/kg/day
Procedure: In Example 8 a set of six Sprague Dawley male rats, each weighing approximately 350 grams, were orally treated with a concentration of 20 mg per kilogram of rat weight per day, again suspended in a 1% aqueous solution of CMC. The dosage was applied orally by an intubation needle. On days 9 and 16 serum cholesterol and serum triglycerides blood levels of the rats were measured utilizing th procedure of Example 7.
A control group of six similar Sprague Dawley male rats were untreated but tested on Days 9 and 16 in accordance with the tests administered to the treated rats. Table 6 reports the percent control based on the decrease in serum cholesterol and serum triglycerides of the treated rats compared to the levels measured in the untreated control group.

[2] = system: Phosphatidate Phosphohyrolase; test: In vitro enzyme activity, liver homogenate: phosphatidate phosphohydrolase; assay type: biochemical, CF1 male mouse; details: ± SD, N = 6
Procedure: as §1, §2

^3 H-cholesterol = test: Effect on 3H Cholesterol Distribution in Rats, Example 12; assay type: in vivo, Sprague Dawley rats; details: oral 20 mg/kg/day
Procedure: A group of 6 Sprague Dawley rats, each weighing approximately 300 g, were treated with 3,4,5,6-dibenzohomopiperdine applied orally at a dosage of 20 mg/kg per day for 4 days. Six similar Sprague Dawley rats were untreated and served as a control. On the 13th day, 10 μCi of ^3 H-cholesterol was administered orally. The rats were sacrificed and tissue samples were combusted or plated on filter paper, dried and digested for 24 hours in hyamine hydroxide at 40° C. and counted. Results of this test are reported as disintegrations per minute (DPM) per total organ.
In Table 10, the average organ weight and feces of the treated and untreated rats are reported. The table indicates the concentration of ^3 H-cholesterol in the organs and feces of the treated and untreated (control) rats.

Chylomicrons = test: Lipoprotein fractions in Rats, Example 11: chylomicrons; assay type: in vivo, Sprague Dawley male rats; details: oral 20 mg/kg/day, fourteen days, ± SD
Procedure: A group of six Sprague Dawley male rats were treated with 20 mg/kg/day of 3,4,5,6-dibenzohomopiperidine. The treatment was applied orally. An equal number of Sprague Dawley male rats, having approximately the same weight, were utilized as an untreated control. At the end of fourteen days the control and treated rats were sacrificed. Blood was collected from the abdominal aorta and lipoprotein fractions were obtained by the method of Hatch and Lees [Adv. Lipid Rees., 6, 1 (1968)] and Havel et al. [J. Clin Invest., 34, 1345 (1955)]. Each of the fractions were analyzed for cholesterol, triglycerides, neutral lipids, phospholipids and protein levels.

With `c1ccc2c(c1)CNCc1ccccc1-2` [Compound 3, 3,4,5,6-dibenzohomopiperidine] the “Percent Control, in vivo enzyme activity” value (Acetyl CoA Carboxylase; 10 mg/kg/day ip) was 54 ± 6%, the “Percent Control, in vivo enzyme activity” value (Acetyl CoA Carboxylase; 20 mg/kg/day ip) was 57 ± 7% and the “Percent Control, in vivo enzyme activity” value (Acetyl CoA Carboxylase; 40 mg/kg/day ip) was 47 ± 5%. The “Percent Control, in vivo enzyme activity” value (Acetyl CoA Carboxylase; 60 mg/kg/day ip) was 60 ± 4%, the remaining activity at 50 µM ([1]; 50 μM) was 90 ± 7% and the remaining activity at 100 µM ([1]; 100 μM) was 89 ± 6%. The remaining activity at 200 µM ([1]; 200 μM) was 72 ± 5%, the remaining activity at 50 µM (Acetyl CoA Synthetase; 50 μM) was 112 ± 6% and the remaining activity at 100 µM (Acetyl CoA Synthetase; 100 μM) was 100 ± 7%. For the same molecule, the remaining activity at 200 µM (Acetyl CoA Synthetase; 200 μM) was 101 ± 6%, the “% Control Serum Triglycerides Day 9” value (serum triglycerides; day 9) was 54% and the “% Control Serum Triglycerides Day 16” value (serum triglycerides; day 16) was 54%. For the same molecule, the “Percent Control, in vitro enzyme activity” value ([2]; 50 μM) was 45 ± 4%, the “Percent Control, in vitro enzyme activity” value ([2]; 100 μM) was 44 ± 8% and the “Percent Control, in vitro enzyme activity” value ([2]; 200 μM) was 50 ± 6%. The “3H-cholesterol, Treated % Recovery” value (^3 H-cholesterol; brain) was 0.162%, the “3H-cholesterol, Treated DPM per total organ” value (^3 H-cholesterol; brain) was 9,216 DPM and the “3H-cholesterol, Treated % Recovery” value (^3 H-cholesterol; chyme) was 11.739%. For the same molecule, the “3H-cholesterol, Treated DPM” value (^3 H-cholesterol; chyme) was 667,840 DPM, the “3H-cholesterol, Treated % Recovery” value (^3 H-cholesterol; feces) was 14.462% and the “3H-cholesterol, Treated DPM” value (^3 H-cholesterol; feces) was 822,719 DPM. The “3H-cholesterol, Treated % Recovery” value (^3 H-cholesterol; heart) was 0.452%, the “3H-cholesterol, Treated DPM per total organ” value (^3 H-cholesterol; heart) was 25,692 DPM and the “3H-cholesterol, Treated % Recovery” value (^3 H-cholesterol; kidney) was 0.652%. For the same molecule, the “3H-cholesterol, Treated DPM per total organ” value (^3 H-cholesterol; kidney) was 37,096 DPM, the “3H-cholesterol, Treated % Recovery” value (^3 H-cholesterol; large intestine) was 3.757% and the “3H-cholesterol, Treated DPM per total organ” value (^3 H-cholesterol; large intestine) was 213,777 DPM. The “3H-cholesterol, Treated % Recovery” value (^3 H-cholesterol; liver) was 23.615%, the “3H-cholesterol, Treated DPM per total organ” value (^3 H-cholesterol; liver) was 1,343,450 DPM and the “3H-cholesterol, Treated % Recovery” value (^3 H-cholesterol; lung) was 2.183%. For the same molecule, the “3H-cholesterol, Treated DPM per total organ” value (^3 H-cholesterol; lung) was 124,180 DPM, the “3H-cholesterol, Treated DPM” value (^3 H-cholesterol; plasma) was 26,018 DPM and the “3H-cholesterol, Treated % Recovery” value (^3 H-cholesterol; small intestine) was 38.525%. The “3H-cholesterol, Treated DPM per total organ” value (^3 H-cholesterol; small intestine) was 2,191,623 DPM, the “3H-cholesterol, Treated % Recovery” value (^3 H-cholesterol; spleen) was 1.806% and the “3H-cholesterol, Treated DPM per total organ” value (^3 H-cholesterol; spleen) was 102,723 DPM. For the same molecule, the “3H-cholesterol, Treated % Recovery” value (^3 H-cholesterol; stomach) was 2.189%, the “3H-cholesterol, Treated DPM per total organ” value (^3 H-cholesterol; stomach) was 124,552 DPM and the “Cholesterol, concentration as a function of control” value (Chylomicrons) was 77 ± 6%. The “Neutral Lipids, concentration as a function of control” value (Chylomicrons) was 69 ± 7%, the “Phospholipids, concentration as a function of control” value (Chylomicrons) was 65 ± 5% and the “Protein, concentration as a function of control” value (Chylomicrons) was 106 ± 6%. The “Triglycerides, concentration as a function of control” value (Chylomicrons) was 69 ± 6%.
